# “Also recorded” adds a separate entry of the source.
# Tested on: dopaminergic neurons in zebrafish embryos
# Test: MPTP neurotoxicity and neuroprotection in zebrafish embryos, whole mount in situ hybridization with tyrosine hydroxylase probe
# Type: in vivo, zebrafish (Danio rerio)
# Settings: for protection of neurons from MPTP-induced damage: coculture/coincubation of embryos with MPTP 10 μg/mL (43 μM)
# Protocol: Mating pairs of adult zebrafish are placed in mating cages in the evening. The following morning, eggs are collected from the bottom of the mating cage and fertile embryos are placed in fresh fish water. At the end of the day, (embryos should be at the late gastrulation stage) phenylthiourea (PTU, Sigma-Aldrich) is added to a final concentration of 0.003% to prevent formation of pigment. At approximately 24 hours past fertilization (hpf), embryos are transferred to a 24 or 96 well plate for treatment in different concentrations of neurotoxins. Zebrafish embryos at this stage in development have completed much of their brain development and primary neurogenesis (Kimmel, et al., 1995). Motor neurons and some dopaminergic neurons are detectable at this stage (Eisen, et al., 1986; Guo, et al., 1999).
# Initial concentrations of neurotoxins, including MPTP, hydroxydopamine, NMDA and THA (all purchased from Sigma-Aldrich), are determined based on the concentrations administered to goldfish (Goping, et al., 1995) and that used in cultured spinal cord explant experiments (Rothstein, et al., 1993; Annis and Vaugn, 1998). One of skill can adjust the concentrations depending on the level of neuronal damage desired and the time frame for neuronal damage.
# After embryos are secured in plates with lids, plates are transferred to an incubator, preset to 28.5° C., the optimal temperature for zebrafish development. At different time points (1, 2, and 3 days after treatment), untreated embryos and embryos treated with MPTP or hydroxydopamine are fixed in 4% paraformaldehyde and prepared for in situ hybridization and/or immunohistochemistry.
# In situ hybridization is performed as described by Thisse, et al. (1993). A plasmid containing a partial cDNA sequence encoding tyrosine hydroxylase was obtained from A. Rosenthal (Guo, et al., 1999). An antisense RNA probe to this gene can be synthesized by in vitro transcription, incorporating digoxygenin-labeled UTP (Roche Molecular Biochemicals). Embryos are hybridized with probe overnight at 70 degrees in 50% formamide buffer. After several washes, embryos are incubated overnight with an antibody to digoxygenin conjugated to alkaline phosphatase (Roche Molecular Biochemicals). […]
# This study is performed essentially as described above, except that neuroprotective drugs (levodopa, deprenyl, and D-AP5, Sigma-Aldrich) are added to the embryo cultures at selected time points, both concurrently with neurotoxins and after neurotoxins have exerted their effects. Initial concentrations are determined based on that used in goldfish and tissue culture expeirments. Again, results are measured by examination of neurons in both a qualitative and quantitative manner, as described above. […]
Compound,protection of neurons from MPTP-induced damage,protection of neurons from MPTP-induced damage (listed as deprenyl),"effect on non-dopaminergic cell populations (MPTP 10 μg/mL (43 μM), 5 day old embryo, tyrosine hydroxylase in situ hybridization (FIG. 2))","effect on dopaminergic neurons / dopaminergic populations (MPTP 10 μg/mL (about 43 μM), embryos soaked, 5 day old embryo, tyrosine hydroxylase in situ hybridization (FIG. 2))"
C#CCN(C)[C@H](C)Cc1ccccc1 [L-deprenyl],MPTP-induced damage can be prevented,protects neurons,,
"CN1CC=C(c2ccccc2)CC1 [MPTP, 1-methyl-4-phenyl-1,2,3,6-tetrahydropyridine]",,,unchanged,destroys dopaminergic populations; also recorded: significantly reduced

# Source: US20090181392A1, “Transgenic Zebrafish Models for Neurodegenerative Diseases” (priority 2001, published 2009)
